Data taken from PubChem BioAssay (NCI).
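1) Cells in 96-well plates. 2) Compound, 48 h, 5 concentrations. 3) Linear interpolation between surrounding doses. 4) Unreached endpoint = highest concentration. TGI denotes the concentration required for complete inhibition of growth.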

Experiments:
[1] = system: LXFL 529 NSCLC; assay: DTP human tumour cell line panel, 48 h
[2] = system: SR leukemia; assay: DTP human tumour cell line panel, 48 h

Structure (SMILES): Cn1c(=O)c2nc(N3CCCCC3)cnc2n(C)c1=O
- TGI [1]: > 100 µM
- TGI [2]: > 100 µM
